# According to ChEMBL document CHEMBL1145437, “Synthesis and biological evaluation of N-acetyl-beta-aryl-1,2-didehydroethylamines as new HIV-1 RT inhibitors in vitro” (Bioorg Med Chem Lett, 2007):
# pEC50, pIC50: −log10 of the molar value. The source made the active and inactive calls. No cut-off for these calls is given here.
# How the values were obtained:
# [1] = Inhibition of HIV1 reverse transcriptase; design: species or system Human immunodeficiency virus 1
# [2] = tested on: Human immunodeficiency virus 1; assay: Inhibition of HIV1 reverse transcriptase at 200 ug/mL
# [3] = Cytotoxicity in human C8166 cells; type: cell-based
# [4] = tested on: Human immunodeficiency virus 1; assay: Antiviral activity against HIV1 assessed as syncytium reduction; type: functional, organism-based
# [5] = Therapeutic index, Ratio of CC50 for human C8166 cells to EC50 for HIV1; type: cell-based; settings: read-out: TI
# [6] = tested on: Human immunodeficiency virus 1; assay: Inhibition of HIV1 reverse transcriptase at 20 ug/mL
SMILES,pIC50 [1],inhibition [2],CC50 [3],other results
O=[N+]([O-])/C=C/c1ccccc1 [(2-NITROVINYL)BENZENE],4.06,99.7%,13.6 µM,–
CC(=O)N/C=C/c1ccc(C)cc1,–,16.6%,–,–
CC(=O)N/C=C/c1ccccc1C,–,40.1%,385 µM,pEC50 [4]: 3.42; selectivity ratio [5]: 1
CC(=O)N/C=C/c1ccccc1,–,22.2%,–,–
O=[N+]([O-])/C=C/c1ccc(O)cc1,3.26,96.4%,15.8 µM,–
COc1ccc(/C=C/[N+](=O)[O-])cc1,3.25,93.5%,6.3 µM,–
CC(=O)N/C=C/c1ccccc1Br,–,54.4%,241 µM,pEC50 [4]: 3.87; selectivity ratio [5]: 1.8
CC(=O)N/C=C/c1ccc(F)cc1,–,–,–,Activity [2]: inactive
CC(=O)N(C)/C=C/c1cccc(Br)c1,3.08,45.4%,409 µM,pEC50 [4]: 3.89; selectivity ratio [5]: 3.2
CC(=O)N/C=C/c1ccsc1,–,–,–,Activity [2]: inactive
O=[N+]([O-])/C=C/c1ccccc1Br,3.69,95.7%,0.57 µM,–
CC(=O)N/C=C/c1cccc(Cl)c1,–,10.7%,–,–
Cc1cn([C@H]2C[C@H](N=[N+]=[N-])[C@@H](CO)O2)c(=O)[nH]c1=O [ZIDOVUDINE],–,–,> 5090 µM,pEC50 [4]: 7.97; selectivity ratio [5]: > 471000
O=[N+]([O-])/C=C/c1ccc(Br)cc1,–,20.3%,13.6 µM,–
O=[N+]([O-])/C=C/c1cccc(Cl)c1,< 2.96,49.8%,4.6 µM,–
O=[N+]([O-])/C=C/c1ccsc1,3.15,86.2%,25.5 µM,–
CC(=O)N(C)/C=C/c1ccccc1Cl,3.36,75.2%,441 µM,pEC50 [4]: 4.02; selectivity ratio [5]: 4.6
CC(=O)N(C)/C=C/c1ccc(Br)cc1,–,–,–,Activity [2]: inactive
CC(=O)N(C)/C=C/c1ccccc1C,3.31,79.8%,609 µM,pEC50 [4]: 3.94; selectivity ratio [5]: 5.2
CC(=O)N/C=C/c1ccc(O)cc1,–,–,–,Activity [2]: inactive
COc1ccc(/C=C/NC(C)=O)c(OC)c1,–,–,–,Activity [2]: inactive
COc1cc(OC)c(OC)cc1/C=C/[N+](=O)[O-],< 3.08,49.1%,4.7 µM,–
COc1cc(OC)c(OC)cc1/C=C/NC(C)=O,–,–,–,Activity [2]: inactive
O=[N+]([O-])/C=C/c1ccc(Cl)cc1,–,19.8%,–,–
O=[N+]([O-])/C=C/c1ccccc1Cl,3.44,99.3%,3 µM,–
CC(=O)N/C=C/c1cccc2ccccc12,–,26.5%,–,–
CC(=O)N/C=C/c1ccco1,–,–,–,Activity [2]: inactive
O=[N+]([O-])/C=C/c1ccccc1F,3.44,95.4%,2.8 µM,–

SMILES,pIC50 [1],inhibition [2],CC50 [3],other results
CC(=O)N/C=C/c1ccccc1O,–,10.1%,–,–
COc1ccccc1/C=C/NC(C)=O,–,–,–,Activity [2]: inactive
CC(=O)N/C=C/c1ccccc1F,–,36.2%,341 µM,pEC50 [4]: 3.42; selectivity ratio [5]: < 1
Cc1cc(C)c(/C=C/[N+](=O)[O-])cc1C,–,31.5%,6.9 µM,–
CC(=O)N/C=C/c1ccc(Cl)cc1,–,–,–,Activity [2]: inactive
Cc1ccccc1/C=C/[N+](=O)[O-],3.58,99.2%,7.4 µM,–
O=[N+]([O-])/C=C/c1ccccc1O,3.27,98.2%,18.8 µM,–
CC(=O)N/C=C/c1ccc(Br)cc1,–,–,–,Activity [2]: inactive
CC(=O)N(C)/C=C/c1ccccc1Br,3.47,85.3%,> 787 µM,pEC50 [4]: 4.22; selectivity ratio [5]: > 13.2
O=[N+]([O-])/C=C/c1ccc(C(F)(F)F)cc1,–,29.4%,–,–
O=[N+]([O-])/C=C/c1cccc(Br)c1,–,13.4%,–,–
CC(=O)N/C=C\c1ccsc1,–,12%,–,–
COc1ccc(/C=C/[N+](=O)[O-])c(OC)c1,3.26,86.3%,5.4 µM,–
COc1ccc(/C=C/NC(C)=O)cc1,–,–,–,Activity [2]: inactive
CC(=O)N/C=C/c1ccc2ccccc2c1,–,30.1%,154 µM,pEC50 [4]: 4.30; selectivity ratio [5]: 3.1
CC(=O)N(C)/C=C/c1ccccc1F,3.32,61.7%,667 µM,pEC50 [4]: 3.92; selectivity ratio [5]: 5.6
COc1ccccc1/C=C/[N+](=O)[O-],3.65,99.7%,5 µM,–
O=[N+]([O-])/C=C/c1ccc(F)cc1,–,22.9%,–,–
Cc1ccc(/C=C/[N+](=O)[O-])cc1,–,36.9%,15.2 µM,–
CC(=O)N/C=C/c1ccccc1Cl,–,34%,297 µM,pEC50 [4]: 3.91; selectivity ratio [5]: 2.4
O=[N+]([O-])/C=C/c1ccc2ccccc2c1,3.03,58.8%,40.6 µM,–
O=[N+]([O-])/C=C/c1cccc2ccccc12,3.10,81.4%,39.6 µM,–
CC(=O)N/C=C/c1cccc(Br)c1,–,41.5%,134 µM,pEC50 [4]: 4.05; selectivity ratio [5]: 1.5
O=C(O)P(=O)(O)O [FOSCARNET],5.89,–,–,inhibition [6]: 96.5%
CC(=O)N/C=C/c1cc(C)c(C)cc1C,–,25.4%,–,–
CC(=O)N/C=C/c1ccc(C(F)(F)F)cc1,–,–,–,Activity [2]: inactive
O=[N+]([O-])/C=C/c1ccco1,3.33,91.8%,28.9 µM,–
